These results are taken from patent publication US20130288331A1, “PEPTIDOMIMETIC COMPOUNDS AND RELATED METHODS” (priority 2012, published 2013).

For experiment [1], the target named is T1, HIV-1 protease (Human immunodeficiency virus type 1 group M subtype B, UniProt P04585). Kind of experiment: FRET assay of HIV-1 protease inhibitory activity (IC50). To be noted: for IC50: HIV-1 protease 10.2 nM, 15 min preincubation at 25° C., EDANS/DABCYL substrate for C-protected, HiLyte Fluor 488/QXL 520 substrate for deprotected inhibitors. It is filed as biochemical. How it is done: The HIV-1 protease inhibitory activities of the compounds were determined by a FRET method. HIV-1 protease stock solution was diluted with assay buffer (0.1M sodium acetate, 1.0 M sodium chloride, 1.0 mM EDTA, 1.0 mM DTT, 10% DMSO, and 1.0 mg/mL BSA, pH 4.7). All inhibitors were dissolved in DMSO, and diluted to appropriate concentrations with deionized water such that the maximum conc. of DMSO in the buffer was 8.5%. EDANS/DABCYL-based FRET peptide substrate (Ex/Em=340/490 nm) solution in SensoLyte® 490 HIV Protease Assay Kit (Cat. #71127) and HiLyte Fluor™ 488/QXL™ 520-based FRET peptide substrate (Ex/Em=490/520 nm) solution in SensoLyte® 520 HIV Protease Assay Kit (Cat. #71147) were purchased from Anaspec. We needed to use these two different substrates because the compounds without C-protection (throughout this means protection on the oxygen at the C-terminus, a terminal OH) have weak fluorescence that interferes with that from the EDANS/DABCYL-based FRET peptide substrate (Ex/Em=340/490 nm) so an alternative substrate was used.
For the determination of IC50 values, HIV-1 protease (40 μL, 10.2 nM final concentration) and inhibitors (10 μL) were incubated for 15 min at 25° C. Substrate solutions (50 μL) in the buffer were added into the incubated solution to initiate the reaction. EDANS/DABCYL-based FRET peptide substrate was used for C-protected inhibitors, and HiLyte Fluor™ 488/QXL™ 520-based FRET peptide substrate was used for deprotected inhibitors. The total assay volume was 100 μL. Fluorescence was monitored for 5 min at 30° C. in a fluorescence microplate reader (BioTek) at Ex/Em=340/490 nm for ^tBu-protected inhibitors, and Ex/Em=490/520 nm for deprotected inhibitors. The initial velocities were plotted against log [inhibitor] and a sigmoidal curve was fitted to the data points using Graphpad Prism 5 software to obtain IC50 values.

For experiment [2], the target named is T1, HIV-1 protease. Kind of experiment: Zhang-Poorman kinetic assay of HIV-1 protease dimerization inhibition. It is filed as biochemical. As to conditions: for Ki: calculated from y-intercepts using the Zhang-Poorman equation, HIV-1 protease 0.6 to 5.1 nM. The protocol:
If a compound acts as a dimerization inhibitor, the Zhang-Poorman plot gives a line with a slope similar to that obtained for the uninhibited control but with a different intercept; active-site inhibitors yield different slopes compared with the uninhibited control. For this assay, HIV-1 protease was used at concentrations from 0.6 to 5.1 nM. Substrate solutions were diluted to ¼ solution from the original solution, and then used for the kinetic assay. HIV-1 protease (40 μL) was incubated with or without an inhibitor (10 μL) at the desired concentration for 15 min at 25° C. The diluted substrate solution (50 μL) was added to the incubated solution. Fluorescence was monitored for 15 min at 30° C. in a fluorescence microplate reader (BioTek) at Ex/Em=340/490 nm for C-protected inhibitors, and Ex/Em=490/520 nm for deprotected inhibitors.
Slopes for 1lai-H (8.2±0.6) and 1fla-H (9.3±1.2) compared with uninhibited HIV-1 (9.0±0.6) have different y-intercepts (1lai-H y-intercepts 0.19, 1fla-H y-intercepts 0.73, control y-intercepts 0.013). y-Intercepts of uninhibited HIV-1 have different values between experiments for C-protected and deprotected compounds because the substrates used in the assay are different (see above). The results are consistent with 1-H-1-^tBu (side-chains as indicated above) acting as dimerization inhibitors. We note that it has been reported that inhibition of HIV-1 protease activities by dimerization inhibitors is dependent on the time of pre-incubation with the enzyme and inversely dependent on enzyme concentration; consequently, these factors must be standardized if comparing our data with those from different labs.

A further experiment concerns the target GAPDH (Homo sapiens, UniProt P04406). To be noted: rescue from apoptosis in vitro; cited from earlier work.
Setting [3] is: FIG. 2B, deprotected compounds, Ex/Em=490/520 nm substrate, control 0.013.
Where [4] appears, read: FIG. 2B, deprotected compounds, Ex/Em=490/520 nm substrate, uninhibited HIV-1 9.0±0.6.
Setting [5] is: FIG. 2A, C-protected compounds, Ex/Em=340/490 nm substrate, control 0.42.
[6] abbreviates: FIG. 2A, C-protected compounds, Ex/Em=340/490 nm substrate, uninhibited HIV-1 9.7±0.7.

GAPDH, sequence (P04406 whole entry, species assumed): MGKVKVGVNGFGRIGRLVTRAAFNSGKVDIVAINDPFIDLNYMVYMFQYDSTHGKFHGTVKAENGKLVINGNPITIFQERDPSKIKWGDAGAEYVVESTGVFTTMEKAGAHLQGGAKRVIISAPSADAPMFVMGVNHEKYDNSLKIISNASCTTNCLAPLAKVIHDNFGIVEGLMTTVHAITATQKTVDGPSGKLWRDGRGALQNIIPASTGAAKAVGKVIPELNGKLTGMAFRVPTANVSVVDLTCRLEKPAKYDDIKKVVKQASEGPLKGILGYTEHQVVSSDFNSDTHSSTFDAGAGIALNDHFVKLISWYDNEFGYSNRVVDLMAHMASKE

With `CC(C)C[C@H]1C(N2CC[C@H](N3C(=O)CC(=O)[C@@H]3C)C2)=CC(=O)N1[C@H]1CCN(C2=CC(=O)N[C@H]2Cc2ccccc2)C1` [Compound 1fla-H], the IC50 on HIV-1 protease [1] was 46.5 ± 8 µM. Moreover, the “y-intercept of Zhang-Poorman plot” value at HIV-1 protease [2] (setting [3]) was 0.73. For the same compound, the “slope of Zhang-Poorman plot” value on HIV-1 protease [2] (setting [4]) came to 9.3±1.2. At HIV-1 protease [2], the Ki was 0.93 ± 0.3 µM.
With `CC(C)C[C@@H]1NC(=O)C=C1N1CC[C@H](N2C(=O)CC(=O)[C@@H]2C)C1` [Compound 2la-H], on HIV-1 protease [1] (FRET assay, result in words), the “inhibition of HIV-1 protease” value is recorded as “did not show any inhibition”.
On HIV-1 protease [1], `CC(C)C[C@H]1C(=O)CC(=O)N1[C@H]1CCN(C2=CC(=O)N[C@H]2Cc2ccccc2)C1` [Compound 2fl-H, (3′S,5S)-1′-(2-benzyl-5-oxo-2,5-dihydro-1H-pyrrol-3-yl)-5-isobutyl-[1,3′-bipyrrolidine]-2,4-dione] displayed an IC50 of 419 µM.
The compound `CC(C)C[C@H]1C(N2CC[C@H](N3C(=O)C=C(OC(C)(C)C)[C@@H]3C)C2)=CC(=O)N1[C@H]1CCN(C2=CC(=O)N[C@H]2Cc2ccccc2)C1` [1fla-^tBu, (S)-1-((S)-1-((S)-2-benzyl-5-oxo-2,5-dihydro-1H-pyrrol-3-yl)pyrrolidin-3-yl)-4-((S)-3-((S)-3-(tert-butoxy)-2-methyl-5-oxo-2,5-dihydro-1H-pyrrol-1-yl)pyrrolidin-1-yl)-5-isobutyl-1H-pyrrol-2(5H)-one] gave a 50% inhibitory concentration (IC50) at HIV-1 protease [1] of 54.9 ± 6 µM. For the same compound, the “y-intercept of Zhang-Poorman plot” value at HIV-1 protease [2] (setting [5]) is given as 1.4. Also, at HIV-1 protease [2] (setting [6]), the “slope of Zhang-Poorman plot” value is listed as 9.5±0.6. Moreover, on HIV-1 protease [2], the Ki is 21 ± 2.1 µM.
In turn, `CC[C@H](C)C1C(=O)CC(=O)N1[C@H]1CCN(C2=CC(=O)N[C@H]2CC(C)C)C1` (stereo partly drawn) [Compound 2li-H] showed an IC50 at HIV-1 protease [1] of 623 µM.
On the same count and under the same terms, with `CC(C)C[C@H]1C(OC(C)(C)C)=CC(=O)N1[C@H]1CCN(C2=CC(=O)NC2Cc2ccccc2)C1` (stereo partly drawn) [2fl-^tBu, (5S)-1-((3S)-1-(2-benzyl-5-oxo-2,5-dihydro-1H-pyrrol-3-yl)pyrrolidin-3-yl)-4-(tert-butoxy)-5-isobutyl-1H-pyrrol-2(5H)-one] the figure was 516 µM.
On to `CC[C@H](C)[C@H]1C(=O)CC(=O)N1[C@H]1CCN(C2=CC(=O)N([C@H]3CCN(C4=CC(=O)N[C@H]4CC(C)C)C3)[C@H]2C)C1` [Compound 1lai-H, (3′S,5S)-5-((S)-sec-butyl)-1′-((S)-1-((S)-1-((S)-2-Isobutyl-5-oxo-2,5-dihydro-1H-pyrrol-3-yl)pyrrolidin-3-yl)-2-methyl-5-oxo-2,5-dihydro-1H-pyrrol-3-yl)-[1,3′-bipyrrolidine]-2,4-dione], for which, at HIV-1 protease [1], the IC50 amounted to 3.7 ± 0.3 µM. Besides, the “y-intercept of Zhang-Poorman plot” value on HIV-1 protease [2] (setting [3]) is recorded as 0.19. Also, the “slope of Zhang-Poorman plot” value at HIV-1 protease [2] (setting [4]) came to 8.2±0.6. At HIV-1 protease [2], the Ki was 0.38 ± 0.07 µM.
With `C#CCN(C)CC1=Cc2ccccc2Oc2ccccc21` [CGP3466], the “rescuing effect relative to deprenyl” value on GAPDH is reported as 100 ×.
For `CC(C)C[C@@H]1NC(=O)C=C1N1CC[C@H](N2C(=O)C=C(NCCOCCOCCNC3=CC(=O)N([C@H]4CCN(C5=CC(=O)N[C@H]5CC(C)C)C4)[C@H]3C)[C@@H]2C)C1` [Compound 13], the IC50 against HIV-1 protease [1] is 84.4 ± 10 µM. Besides, the “inhibition of HIV-1 protease relative to 2la-^tBu” value against HIV-1 protease [1] (comparison of IC50 values) is on record as “two times better inhibition”.
In turn, `CC[C@H](C)[C@H]1C(OC(C)(C)C)=CC(=O)N1[C@H]1CCN(C2=CC(=O)N([C@H]3CCN(C4=CC(=O)N[C@H]4CC(C)C)C3)[C@H]2C)C1` [1lai-^tBu, (S)-4-(tert-butoxy)-5-((S)-sec-butyl)-1-((S)-1-((S)-1-((S)-1-((S)-2-isobutyl-5-oxo-2,5-dihydro-1H-pyrrol-3-yl)pyrrolidin-3-yl)-2-methyl-5-oxo-2,5-dihydro-1H-pyrrol-3-yl)pyrrolidin-3-yl)-1H-pyrrol-2(5H)-one] returned an IC50 at HIV-1 protease [1] of 111 ± 18 µM. On HIV-1 protease [2] (setting [5]), the “y-intercept of Zhang-Poorman plot” value came to 2.6. Further, the “slope of Zhang-Poorman plot” value on HIV-1 protease [2] (setting [6]) is given as 10.4±1.0. Also, the inhibition constant Ki at HIV-1 protease [2] was 19.4 ± 4.1 µM.
As for `CC(C)C[C@@H]1NC(=O)C=C1N1CC[C@H](N2C(=O)C=C(OC(C)(C)C)[C@@H]2C)C1` [2la-^tBu, (5S)-4-(tert-butoxy)-1-((3S)-1-(2-isobutyl-5-oxo-2,5-dihydro-1H-pyrrol-3-yl)pyrrolidin-3-yl)-5-methyl-1H-pyrrol-2(5H)-one], the half-maximal inhibitory concentration (IC50) at HIV-1 protease [1] amounted to 176 ± 16 µM.
